Source: BindingDB's records for doi:10.1016/j.bmcl.2016.06.076 (Leiden University, 2016)

Target: T1, Diacylglycerol lipase-alpha (Homo sapiens, UniProt Q9Y4D2)
T1 sequence (Q9Y4D2 whole entry): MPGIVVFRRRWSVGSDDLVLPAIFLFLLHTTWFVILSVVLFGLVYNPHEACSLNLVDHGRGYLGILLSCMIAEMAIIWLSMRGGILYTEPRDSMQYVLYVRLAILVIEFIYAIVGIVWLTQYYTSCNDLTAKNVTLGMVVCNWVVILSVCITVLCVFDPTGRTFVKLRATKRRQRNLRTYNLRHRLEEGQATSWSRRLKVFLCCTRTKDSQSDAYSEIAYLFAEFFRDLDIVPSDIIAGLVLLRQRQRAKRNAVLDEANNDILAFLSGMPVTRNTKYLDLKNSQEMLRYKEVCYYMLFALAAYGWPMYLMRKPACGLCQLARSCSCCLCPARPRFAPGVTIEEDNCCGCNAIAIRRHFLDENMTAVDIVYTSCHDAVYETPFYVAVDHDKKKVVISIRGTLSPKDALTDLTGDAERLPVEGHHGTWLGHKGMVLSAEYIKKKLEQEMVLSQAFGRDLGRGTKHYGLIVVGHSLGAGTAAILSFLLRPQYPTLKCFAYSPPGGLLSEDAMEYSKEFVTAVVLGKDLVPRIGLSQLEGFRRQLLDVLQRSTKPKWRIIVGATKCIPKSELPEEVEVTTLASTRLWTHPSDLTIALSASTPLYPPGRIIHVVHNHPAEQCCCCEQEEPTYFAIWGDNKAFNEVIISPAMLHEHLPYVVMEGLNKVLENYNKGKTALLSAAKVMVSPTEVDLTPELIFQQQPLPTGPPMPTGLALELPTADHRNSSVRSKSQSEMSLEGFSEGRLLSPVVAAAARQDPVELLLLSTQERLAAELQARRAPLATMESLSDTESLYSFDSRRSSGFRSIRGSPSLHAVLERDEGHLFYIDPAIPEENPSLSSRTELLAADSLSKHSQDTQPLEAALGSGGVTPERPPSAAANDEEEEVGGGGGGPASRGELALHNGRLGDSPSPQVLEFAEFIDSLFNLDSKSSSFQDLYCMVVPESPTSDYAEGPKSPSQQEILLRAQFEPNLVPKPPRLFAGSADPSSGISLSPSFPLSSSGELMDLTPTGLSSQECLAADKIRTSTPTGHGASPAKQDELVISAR
Experiment: Inhibition of human DAGLalpha expressed in HEK293T cell membrane fractions using PNP butyrate as substrate preincubated for 20 mins followed by substrate addition by colorimetric surrogate substrate assay

IC50: 40 nM
Structure (SMILES): O=C(CCCCCc1ccccc1)c1nc2ncccc2o1 [1-(oxazolo[4,5-b]pyridin-2-yl)-6-phenylhexan-1-one]
